ChEMBL document CHEMBL3885861, “Open TG-GATES”

Species on record: Rattus norvegicus
Experiment: Open TG-GATES - Regimen: Daily Repeat
Type: toxicity, organism-based, Sprague-Dawley
Set-up: regimen Daily Repeat, gender Male, age 6 weeks
Settings: in vivo, po, 0 mg/kg, route gavage, dose level Control; for APTT / Bas / Eos / Fbg / Hb / Ht / Lym / MCH / MCHC / MCV / Mono / Neu / PT / Plat / RBC / Ret / WBC: tissue Blood; for KIDNEY_L / KIDNEY_R / KIDNEY_TOTAL: tissue Kidney; for LIVER: tissue Liver; for A/G / ALP / ALT / AST / BUN / CRE / Ca / Cl / DBIL / GLC / IP / K / LDH / Na / PL / RALB / TBIL / TC / TG / TP / gamma-GTP: tissue Plasma

CCCCNC(=O)NS(=O)(=O)c1ccc(C)cc1 [TOLBUTAMIDE]
TERMINAL_BW (72 h, time 3 day): 235.2 g | APTT (72 h, time 3 day): 16.5 s | Bas (72 h, time 3 day): 0.2% | Eos (72 h, time 3 day): 1% | Fbg (72 h, time 3 day): 315.4 mg/dL | Hb (72 h, time 3 day): 14 g/dL | Ht (72 h, time 3 day): 43.2% | Lym (72 h, time 3 day): 74.6% | MCH (72 h, time 3 day): 20.4 pg | MCHC (72 h, time 3 day): 32.4% | MCV (72 h, time 3 day): 63 fL | Mono (72 h, time 3 day): 2.2% | Neu (72 h, time 3 day): 21.6% | PT (72 h, time 3 day): 13 s | Plat (72 h, time 3 day): 112.3 x10_4/uL | RBC (72 h, time 3 day): 686.4 x10_4/ul | Ret (72 h, time 3 day): 6.8% | WBC (72 h, time 3 day): 101.6 x10_2/uL | KIDNEY_L (72 h, time 3 day): 1 g | KIDNEY_R (72 h, time 3 day): 1 g | KIDNEY_TOTAL (72 h, time 3 day): 2 g | LIVER (72 h, time 3 day): 10.6 g | A/G (72 h, time 3 day): 0.9 | ALP (72 h, time 3 day): 1867 IU/L | ALT (72 h, time 3 day): 51 IU/L | AST (72 h, time 3 day): 75.2 IU/L | BUN (72 h, time 3 day): 15 mg/dL | CRE (72 h, time 3 day): 0.2 mg/dL | Ca (72 h, time 3 day): 11.3 mg/dL | Cl (72 h, time 3 day): 105.2 meq/L | DBIL (72 h, time 3 day): 0.014 mg/dL | GLC (72 h, time 3 day): 179 mg/dL | IP (72 h, time 3 day): 8.9 mg/dL | K (72 h, time 3 day): 4.1 meq/L | LDH (72 h, time 3 day): 64.4 IU/L | Na (72 h, time 3 day): 143.6 meq/L | PL (72 h, time 3 day): 149.8 mg/dL | RALB (72 h, time 3 day): 2.7 g/dL | TBIL (72 h, time 3 day): 0.066 mg/dL | TC (72 h, time 3 day): 79 mg/dL | TG (72 h, time 3 day): 79.2 mg/dL | TP (72 h, time 3 day): 5.7 g/dL | gamma-GTP (72 h, time 3 day): 1 IU/L | TERMINAL_BW ([…], time 7 day): 272.6 g | TERMINAL_BW ([…], time 14 day): 338.7 g | TERMINAL_BW ([…], time 28 day): 414.9 g | APTT ([…], time 7 day): 17 s | Bas ([…], time 7 day): 0.4% | Eos ([…], time 7 day): 1% | Fbg ([…], time 7 day): 274.8 mg/dL | Hb ([…], time 7 day): 13.6 g/dL | Ht ([…], time 7 day): 41% | Lym ([…], time 7 day): 80% | MCH ([…], time 7 day): 20.8 pg | MCHC ([…], time 7 day): 33.3% | MCV ([…], time 7 day): 62.4 fL | Mono ([…], time 7 day): 2.6% | Neu ([…], time 7 day): 15.6% | PT ([…], time 7 day): 13 s | Plat ([…], time 7 day): 127.5 x10_4/uL | RBC ([…], time 7 day): 657.4 x10_4/ul | Ret ([…], time 7 day): 5.7% | WBC ([…], time 7 day): 127.9 x10_2/uL | APTT ([…], time 14 day): 17.6 s | Bas ([…], time 14 day): 0.2% | Eos ([…], time 14 day): 1% | Fbg ([…], time 14 day): 284 mg/dL | Hb ([…], time 14 day): 14.4 g/dL | Ht ([…], time 14 day): 43.7% | Lym ([…], time 14 day): 78.4% | MCH ([…], time 14 day): 19.9 pg | MCHC ([…], time 14 day): 32.8% | MCV ([…], time 14 day): 60.7 fL | Mono ([…], time 14 day): 1.8% | Neu ([…], time 14 day): 18% | PT ([…], time 14 day): 13 s | Plat ([…], time 14 day): 124.7 x10_4/uL | RBC ([…], time 14 day): 721.4 x10_4/ul | Ret ([…], time 14 day): 4.4% | WBC ([…], time 14 day): 108 x10_2/uL | APTT ([…], time 28 day): 18.4 s | Bas ([…], time 28 day): 0.2% | Eos ([…], time 28 day): 1% | Fbg ([…], time 28 day): 277 mg/dL | Hb ([…], time 28 day): 15.8 g/dL | Ht ([…], time 28 day): 47.1% | Lym ([…], time 28 day): 80.2% | MCH ([…], time 28 day): 19.4 pg | MCHC ([…], time 28 day): 33.4% | MCV ([…], time 28 day): 58 fL | Mono ([…], time 28 day): 2% | Neu ([…], time 28 day): 16% | PT ([…], time 28 day): 13.6 s | Plat ([…], time 28 day): 107.1 x10_4/uL | RBC ([…], time 28 day): 813.4 x10_4/ul | Ret ([…], time 28 day): 2.3% | WBC ([…], time 28 day): 117.4 x10_2/uL | KIDNEY_L ([…], time 7 day): 1.1 g | KIDNEY_R ([…], time 7 day): 1.1 g | KIDNEY_TOTAL ([…], time 7 day): 2.2 g | KIDNEY_L ([…], time 14 day): 1.2 g | KIDNEY_R ([…], time 14 day): 1.3 g | KIDNEY_TOTAL ([…], time 14 day): 2.5 g | KIDNEY_L ([…], time 28 day): 1.5 g | KIDNEY_R ([…], time 28 day): 1.5 g | KIDNEY_TOTAL ([…], time 28 day): 2.9 g | LIVER ([…], time 7 day): 12.8 g | LIVER ([…], time 14 day): 15.3 g | LIVER ([…], time 28 day): 15.9 g | A/G ([…], time 7 day): 0.9 | ALP ([…], time 7 day): 1890.2 IU/L | ALT ([…], time 7 day): 43.2 IU/L | AST ([…], time 7 day): 69.2 IU/L | BUN ([…], time 7 day): 18.2 mg/dL | CRE ([…], time 7 day): 0.2 mg/dL | Ca ([…], time 7 day): 10.9 mg/dL | Cl ([…], time 7 day): 103.8 meq/L | DBIL ([…], time 7 day): 0.012 mg/dL | GLC ([…], time 7 day): 189.4 mg/dL | IP ([…], time 7 day): 8.1 mg/dL | K ([…], time 7 day): 4.1 meq/L | LDH ([…], time 7 day): 64.8 IU/L | Na ([…], time 7 day): 142.2 meq/L | PL ([…], time 7 day): 148.8 mg/dL | RALB ([…], time 7 day): 2.6 g/dL | TBIL ([…], time 7 day): 0.062 mg/dL | TC ([…], time 7 day): 67.2 mg/dL | TG ([…], time 7 day): 139.8 mg/dL | TP ([…], time 7 day): 5.6 g/dL | gamma-GTP ([…], time 7 day): 0.8 IU/L | A/G ([…], time 14 day): 0.8 | ALP ([…], time 14 day): 1297.4 IU/L | ALT ([…], time 14 day): 37 IU/L | AST ([…], time 14 day): 66.4 IU/L | BUN ([…], time 14 day): 16.6 mg/dL | CRE ([…], time 14 day): 0.2 mg/dL | Ca ([…], time 14 day): 11 mg/dL | Cl ([…], time 14 day): 104.2 meq/L | DBIL ([…], time 14 day): 0.012 mg/dL | GLC ([…], time 14 day): 185.6 mg/dL | IP ([…], time 14 day): 7.1 mg/dL | K ([…], time 14 day): 3.9 meq/L | LDH ([…], time 14 day): 58.8 IU/L | Na ([…], time 14 day): 142.6 meq/L | PL ([…], time 14 day): 149 mg/dL | RALB ([…], time 14 day): 2.7 g/dL | TBIL ([…], time 14 day): 0.056 mg/dL | TC ([…], time 14 day): 72.8 mg/dL | TG ([…], time 14 day): 131.2 mg/dL | TP ([…], time 14 day): 5.8 g/dL | gamma-GTP ([…], time 14 day): 1 IU/L | A/G ([…], time 28 day): 0.8 | ALP ([…], time 28 day): 1151.4 IU/L | ALT ([…], time 28 day): 40.6 IU/L | AST ([…], time 28 day): 62 IU/L | BUN ([…], time 28 day): 17 mg/dL | CRE ([…], time 28 day): 0.3 mg/dL | Ca ([…], time 28 day): 10.8 mg/dL | Cl ([…], time 28 day): 105.2 meq/L | DBIL ([…], time 28 day): 0.014 mg/dL | GLC ([…], time 28 day): 186.6 mg/dL | IP ([…], time 28 day): 6.7 mg/dL | K ([…], time 28 day): 4 meq/L | LDH ([…], time 28 day): 52 IU/L | Na ([…], time 28 day): 143.2 meq/L | PL ([…], time 28 day): 162.4 mg/dL | RALB ([…], time 28 day): 2.8 g/dL | TBIL ([…], time 28 day): 0.062 mg/dL | TC ([…], time 28 day): 78 mg/dL | TG ([…], time 28 day): 170 mg/dL | TP ([…], time 28 day): 6.3 g/dL | gamma-GTP ([…], time 28 day): 1.2 IU/L
